We go through one compound from patent publication US10045980B2, “Inhibitor of p38 map kinase” (RESPIVERT LTD, priority 2014, dated 2018).

In assay [1] the test system is d-U937 cells. The assay can be described thus: LPS-induced TNFα/IL-8 release in d-U937 cells. The format is cell-based. The conditions noted are these: Homo sapiens. Here is the method:
U937 cells, a human monocytic cell line, were differentiated into macrophage-type cells by incubation with PMA (100-200 ng/mL) for 48 to 72 hr. Cells were pre-incubated with final concentrations of test compound for 2 h and were then stimulated with LPS (0.1 μg/mL; from E. Coli: 0111:64, Sigma) for 4 h. The supernatant was collected for determination of TNFα and IL-8 concentrations by sandwich ELISA (Duo-set, R&D systems). […] The relative 50% effective concentration (REC50) was determined from the resultant concentration-response curve. The inhibition of IL-8 production was calculated at each concentration of test compound by comparison with vehicle control.

The target in assay [2] is T1, Syk (Homo sapiens, UniProt P43405).
T1 construct: purchased Life Technologies
The assay can be described thus: Syk enzyme inhibition (Z-LYTE FRET). Type of assay: biochemical. Here is the method:
(§1) The enzyme inhibitory activities of the compound disclosed herein were determined by FRET using synthetic peptides labelled with both donor and acceptor fluorophores (Z-LYTE, Life Technologies, Paisley, UK).
The relevant enzyme (1000 ng/mL, 1400 ng/mL or 2000 ng/mL respectively, 2.5 μL) was incubated with the test compound (either 40 μg/mL, 12 μg/mL, 4 μg/mL, 1.2 μg/mL, 0.4 μg/mL, 0.12 μg/mL, 0.04 μg/mL, 0.012 μg/mL, 0.004 μg/mL or 0.0012 μg/mL, 2.5 μL each) for 2 h at RT. The FRET peptides (8 μM, 2.5 μL), and appropriate ATP solutions (2.5 μL, 800 μM for c-Src, and 60 μM ATP for HCK and Syk) were then added to the enzyme/compound mixtures and incubated for 1 h at RT. Development reagent (protease, 5 μL) was added for 1 h prior to detection in a fluorescence microplate reader (EnVision, Perkin Elmer).
(§2) In all cases, the site-specific protease cleaves non-phosphorylated peptide only and eliminates the FRET signal. Phosphorylation levels of each reaction were calculated using the ratio of coumarin emission (donor) over fluorescein emission (acceptor), for which low ratios indicate high phosphorylation and high ratios indicate low phosphorylation levels.

In assay [3] the target is T2, p38MAPKγ (MAPK12) (Homo sapiens, UniProt P53778).
T2 construct: purchased Life Technologies
T2 sequence (P53778 1-367): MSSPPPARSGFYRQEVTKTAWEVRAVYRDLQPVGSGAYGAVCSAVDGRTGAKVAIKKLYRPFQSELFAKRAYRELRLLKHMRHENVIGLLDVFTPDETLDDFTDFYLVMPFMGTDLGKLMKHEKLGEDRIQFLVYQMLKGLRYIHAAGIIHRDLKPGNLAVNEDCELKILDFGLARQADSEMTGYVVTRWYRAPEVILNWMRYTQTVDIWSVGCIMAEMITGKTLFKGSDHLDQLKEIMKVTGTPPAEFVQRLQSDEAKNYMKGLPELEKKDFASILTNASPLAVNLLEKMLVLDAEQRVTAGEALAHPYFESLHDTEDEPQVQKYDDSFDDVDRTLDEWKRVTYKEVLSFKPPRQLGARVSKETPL
The assay can be described thus: p38 MAPKγ enzyme inhibition (Z-LYTE FRET). The format is biochemical. Here is the method:
as §1
The enzyme (800 ng/mL, 2.5 μL) was incubated with the test compound (2.5 μL at either 40 μg/mL, 12 μg/mL, 4 μg/mL, 1.2 μg/mL, 0.4 μg/mL, 0.12 μg/mL, 0.04 μg/mL, 0.012 μg/mL, 0.004 μg/mL or 0.0012 μg/mL) for 2 h at RT. The FRET peptides (8 μM, 2.5 μL), and appropriate ATP solution (2.5 μL, 400 μM) were then added to the enzymes/compound mixtures and incubated for 1 h at RT. Development reagent (protease, 5 μL) was added for 1 h prior to detection in a fluorescence microplate reader (EnVision, Perkin Elmer).
as §2

Assay [4] has as its system sputum macrophages from COPD patients. The assay can be described thus: Cytokine production in LPS-treated sputum macrophages from COPD patients. The format is cell-based. The conditions noted are these: Homo sapiens, Macrophage; at 0.1 μg/mL; LPS 1 μg/mL, 18 h; read-out: Percent Inhibition IL-6. Here is the method:
Patients with COPD inhaled a nebulised solution of 3% (w/v) hypertonic saline using an ultrasonic nebuliser (Devilbiss, Carthage, Mo.) with tidal breathing for 5 min. This procedure was repeated a maximum of three times until enough sputum was obtained. The sputum samples were homogenized and mixed vigorously using a vortex mixer in 0.02% v/v dithiothreitol (DTT) solution. The samples were re-suspended in PBS (40 mL) followed by centrifugation at 1500 rpm at 4° C. for 10 min to obtain sputum cell pellets. The pellets were washed with PBS (40 mL). […]
Where appropriate, 1 μL of a solution containing either the test compound or reference article at the stated concentrations (either 0.1 μg/mL, 0.01 μg/mL, or 0.001 μg/mL) or alternatively 1 μL of DMSO as the vehicle control was added to each well (200 μL in media) and the cells were incubated for 2 h. […] After washing with 200 μL wash buffer per well, the beads were resuspended in sheath fluid (150 μL) and analyzed immediately. The level of each analyte in the supernatant was calculated using Xcel Fit software with a 4 or 5-parameter equation using each standard curve. The inhibitions of each cytokine production were calculated at each concentration by comparison with vehicle control.

The structures appear in SMILES notation. A value given as a limit tells only on which side of the number the result lay.

A word on the IC50: it is the concentration that gives 50% inhibition. One may read the inhibition as the share of the control response that was lost under treatment. Regarding `CCc1cncc(Nc2cc(COc3ccc(NC(=O)Nc4cc(C(C)(C)C)nn4-c4ccc(C)cc4)c4ccccc34)ccn2)n1` [Compound of the invention, 1-(3-(tert-butyl)-1-(p-tolyl)-1H-pyrazol-5-yl)-3-(4-((2-((6-ethylpyrazin-2-yl)amino)pyridin-4-yl)methoxy)naphthalen-1-yl)urea], the EC50 in assay [1] (dU937, 4 h, read-out: LPS Induced Release TNFα REC50 (dU937)) was determined as 5.5 nM. In addition, the IC50 was 11.4 nM in assay [1] (dU937, d-U937 cells, LPS 0.1 μg/mL, 4 h); above 16000 nM in assay [2]; 152 nM in assay [3]. Also, the inhibition at 0.1 µg/mL in assay [4] was found to be 48 ± 9%.
